The values that follow come from article PMC9424235, “Small molecule-mediated allosteric activation of the base excision repair enzyme 8-oxoguanine DNA glycosylase and its impact on mitochondrial function” (Scientific Reports, 2022).

Values joined by “and” are separate entries in the source; they are usually repeats but may differ in a detail not shown here. Equal entries are not always repeated.

One data set concerns OGG1. Also noted: method as in PMID 12592398. Particulars: cited from earlier work.
The target of a further data set is human OGG1 (Homo sapiens, UniProt O15527). As to the kind of experiment: Fluorescent steady-state kinetic assay of OGG1 activation (initial rates; screening concentration response).
Sequence of human OGG1 (O15527 12-345): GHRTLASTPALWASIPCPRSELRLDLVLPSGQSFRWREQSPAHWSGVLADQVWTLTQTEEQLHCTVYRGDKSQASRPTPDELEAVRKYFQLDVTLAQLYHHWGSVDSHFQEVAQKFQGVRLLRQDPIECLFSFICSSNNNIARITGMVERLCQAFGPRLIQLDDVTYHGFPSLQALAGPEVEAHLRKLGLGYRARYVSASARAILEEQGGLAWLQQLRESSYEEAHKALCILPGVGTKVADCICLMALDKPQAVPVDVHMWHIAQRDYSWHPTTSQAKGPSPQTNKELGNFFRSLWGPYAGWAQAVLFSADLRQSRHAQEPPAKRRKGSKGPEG
Data set [1] concerns A549 cells. Kind of data set: ROS production with CM-H2DCFDA (DCF) imaging. Particulars: for EC50: Homo sapiens. Format: cell-based, human.
In data set [2] the test system is A549 cells. As to the kind of experiment: Mitochondrial ROS with MitoSOX. Format: cell-based, human.
For data set [3], the system named is A549 cells. Kind of data set: Nuclear DNA damage by γ-H2AX staining. Format: cell-based, human.
The subject of data set [4] is A549 cells. As to the kind of experiment: Mitochondrial membrane integrity (MitoTracker orange texture analysis). Type of data set: cell-based, human. Particulars: 24 h.
Data set [5] concerns A549 cells. Kind of data set: mtDNA damage by long/short chain PCR. Type of data set: cell-based, human. Particulars: PQ 0.3–3 mM.
Data set [6] relates to A549 cells. As to the kind of experiment: Measurement of energy metabolites (ATP, ADP). Format: cell-based, human.
In data set [7] the test system is A549 cells. Kind of data set: TOM20 immunofluorescence. Format: cell-based, human. Particulars: 0.3 mM PQ, 48 h.
Data set [8] concerns A549 cells. As to the kind of experiment: DRP1 content by quantitative imaging. Format: cell-based, human. Particulars: 0.6 mM PQ, 48 h.
In data set [9] the test system is A549 cells. As to the kind of experiment: DNA ligase III (LIG3) protein content by imaging. Format: cell-based, human. As to conditions: 48 h of PQ at either 0.6 or 1 mM.
Data set [10] concerns A549 cells. As to the kind of experiment: OGG1 content by imaging. Type of data set: cell-based, human. Particulars: 0.6 mM PQ, N = 1 in triplicate.
[11] abbreviates: initial rate analysis, random mechanism.

`Nc1nc2nc(N)[nH]c2c(=O)[nH]1` [Compound 8-aminoGua, 8-aminoguanine]: in the data set with OGG1, the “acceleration / activation level of AP lyase activity” value is recorded as greater than 35 fold and the substrate turnover is on record as 72%.

With `Nc1nc2cc[nH]c2c(=O)[nH]1` [Compound 9-deazaGua, 9-deazaguanine], the “β value as percent of catalytic activity of OGG1 in the presence of 8-bromoGua” value at human OGG1 turned out to be 50%. Also, on human OGG1 (200 μM activator, substrate 80 nM), the “OGG1 initial rate relative to that in the presence of 200 μM 8-bromoGua” value is reported as ~ 25%. Further, at human OGG1 (initial rate analysis with activator and Substrate A varied, OGG1 10 nM), the Km – broadly, the substrate concentration at which the rate is half of its maximum – is 0.015 ± 0.003 µM. On human OGG1 (initial rate analysis with activator and Substrate A varied, OGG1 10 nM, random mechanism fit), the kcat – broadly, the number of substrate molecules converted per active site and unit of time at saturation – is 0.006 ± 0.001 s⁻¹ and 0.006 ± 1 s⁻¹. Besides, at human OGG1 (setting [11]), the “α (coefficient of interaction between activator and substrate)” value is 1.3 ± 0.4; the “β (factor of kcat activation)” value is on record as 18 ± 3.

As to `C[n+]1ccc(-c2cc[n+](C)cc2)cc1.[Cl-].[Cl-]` [Paraquat, N, N′-dimethyl-4,4′-bipyridinium dichloride], the “maximum ROS (DCF) over baseline” value with A549 cells [1] (0.6 mM, 48 h) was 30 fold; in the data set with A549 cells [1] (3 mM, 24 h) it was 30 fold. In addition, the EC50 (in general, the concentration that produces a half-maximal response) in the data set on A549 cells [1] (A549, 24 h) was found to be 1600 µM; in the data set on A549 cells [1] (A549, 48 h) it was 340 µM; in the data set on A549 cells [2] (Homo sapiens, A549, 24 h of exposure), 280 µM. In addition, the “maximal mitochondrial ROS signal intensity (MitoSOX)” value in the data set with A549 cells [2] (3 mM) is 1.75 fold. For the same compound, the “rise in γH2AX (nuclear DNA damage)” value with A549 cells [3] is 2 fold. For the same compound, the “concentration giving maximum effect on mitochondrial membrane integrity” value with A549 cells [4] was found to be 3000 µM. Further, in the data set with A549 cells [5], the “concentration giving maximal mtDNA damage” value came to 600 µM. Moreover, in the data set on A549 cells [6] (24 h with PQ, concentrations not given at the place, listed as PQ), the ATP levels is 3.13 ± 0.14 μmol/gm protein and 2.49 ± 0.67 μmol/gm protein and 1.99 ± 0.45 μmol/gm protein. The ADP levels in the data set on A549 cells [6] (PQ 3 mM, 48 h, time-course experiment) is reported as 68.69 ± 1.47 μmol/gm protein. The “ATP Average” value in the data set on A549 cells [6] (paraquat 0.3 mM alone, 48 h) was 2.56 µmols/g protein and 2.83 µmols/g protein and 1.89 µmols/g protein; in the data set on A549 cells [6] (paraquat 0.6 mM alone, 48 h), 1.43 µmols/g protein and 1.67 µmols/g protein and 1.19 µmols/g protein; with A549 cells [6] (paraquat 1 mM alone, 48 h), 1.47 µmols/g protein and 0.92 µmols/g protein and 1.02 µmols/g protein; with A549 cells [6] (paraquat 3 mM alone, 48 h), 0.96 µmols/g protein and 0.61 µmols/g protein and 0.63 µmols/g protein; with A549 cells [6] (paraquat 3 mM alone, 48 h, listed as PQ) it was 0.63 ± 0.05 µmols/g protein and 0.96 ± 0.10 µmols/g protein and 0.61 ± 0.09 µmols/g protein. Besides, the “ADP Average” value in the data set on A549 cells [6] (paraquat 3 mM alone, 48 h) is 40.48 µmols/g protein and 41.33 µmols/g protein and 53.45 µmols/g protein. In addition, the “TOM20 immunofluorescence increase above baseline” value in the data set with A549 cells [7] was roughly 25%. The “decline of DRP1 content compared to control” value in the data set with A549 cells [8] is recorded as “about 24 ± 0.02%”. Further, the “decline of LIG3 levels” value in the data set on A549 cells [9] is listed as “about 50%”. The “increase of OGG1 content above baseline” value in the data set on A549 cells [10] is 88.3%.
